Reference: ChEMBL document CHEMBL5442219

Assays:
Conditions in all cases: Compound concentration 10 µM
[1] = biological target: T1, Alpha-2B adrenergic receptor (Homo sapiens) (UniProt P18089)
T1 sequence (whole entry): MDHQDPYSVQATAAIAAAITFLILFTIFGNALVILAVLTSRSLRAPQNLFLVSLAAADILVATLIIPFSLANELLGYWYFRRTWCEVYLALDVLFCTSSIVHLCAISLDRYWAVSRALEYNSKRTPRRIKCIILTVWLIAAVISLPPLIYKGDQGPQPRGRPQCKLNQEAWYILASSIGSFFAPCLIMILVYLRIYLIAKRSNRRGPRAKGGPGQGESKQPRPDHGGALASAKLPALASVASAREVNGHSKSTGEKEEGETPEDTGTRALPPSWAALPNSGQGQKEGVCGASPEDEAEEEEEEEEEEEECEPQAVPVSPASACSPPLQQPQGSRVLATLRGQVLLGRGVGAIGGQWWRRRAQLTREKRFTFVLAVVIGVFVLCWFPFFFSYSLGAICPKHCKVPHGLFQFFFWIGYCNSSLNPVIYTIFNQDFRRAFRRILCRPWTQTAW

[2] = biological target: T2, Alpha-2C adrenergic receptor (Homo sapiens) (UniProt P18825)
T2 sequence (whole entry): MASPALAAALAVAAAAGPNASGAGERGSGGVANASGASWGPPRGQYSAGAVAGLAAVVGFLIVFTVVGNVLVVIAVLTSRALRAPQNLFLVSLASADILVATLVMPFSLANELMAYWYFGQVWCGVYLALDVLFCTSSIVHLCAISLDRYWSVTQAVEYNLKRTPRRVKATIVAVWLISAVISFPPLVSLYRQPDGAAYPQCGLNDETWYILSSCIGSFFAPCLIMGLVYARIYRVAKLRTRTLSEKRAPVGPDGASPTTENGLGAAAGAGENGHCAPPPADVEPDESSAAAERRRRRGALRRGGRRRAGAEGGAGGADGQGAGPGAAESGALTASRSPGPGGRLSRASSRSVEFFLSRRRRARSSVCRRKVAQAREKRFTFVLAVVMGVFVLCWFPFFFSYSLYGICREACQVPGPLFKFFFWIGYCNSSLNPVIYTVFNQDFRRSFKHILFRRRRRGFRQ

[3] = biological target: Beta-2 adrenergic receptor (Homo sapiens) (UniProt P07550)
Beta-2 adrenergic receptor (Homo sapiens), sequence (P07550 whole entry, looked up): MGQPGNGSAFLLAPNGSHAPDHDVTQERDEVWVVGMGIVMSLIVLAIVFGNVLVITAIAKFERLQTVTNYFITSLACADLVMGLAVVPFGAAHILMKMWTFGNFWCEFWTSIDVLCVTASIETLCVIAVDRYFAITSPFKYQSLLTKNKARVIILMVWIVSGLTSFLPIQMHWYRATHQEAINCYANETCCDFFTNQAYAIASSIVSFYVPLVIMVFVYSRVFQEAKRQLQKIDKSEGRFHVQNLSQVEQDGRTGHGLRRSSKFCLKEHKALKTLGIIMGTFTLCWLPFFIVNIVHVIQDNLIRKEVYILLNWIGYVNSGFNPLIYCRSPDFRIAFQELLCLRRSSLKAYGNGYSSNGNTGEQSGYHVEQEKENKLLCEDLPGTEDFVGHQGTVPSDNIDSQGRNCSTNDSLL

[4] = biological target: T3, Muscarinic acetylcholine receptor M1 (Homo sapiens) (UniProt P11229)
T3 sequence (whole entry): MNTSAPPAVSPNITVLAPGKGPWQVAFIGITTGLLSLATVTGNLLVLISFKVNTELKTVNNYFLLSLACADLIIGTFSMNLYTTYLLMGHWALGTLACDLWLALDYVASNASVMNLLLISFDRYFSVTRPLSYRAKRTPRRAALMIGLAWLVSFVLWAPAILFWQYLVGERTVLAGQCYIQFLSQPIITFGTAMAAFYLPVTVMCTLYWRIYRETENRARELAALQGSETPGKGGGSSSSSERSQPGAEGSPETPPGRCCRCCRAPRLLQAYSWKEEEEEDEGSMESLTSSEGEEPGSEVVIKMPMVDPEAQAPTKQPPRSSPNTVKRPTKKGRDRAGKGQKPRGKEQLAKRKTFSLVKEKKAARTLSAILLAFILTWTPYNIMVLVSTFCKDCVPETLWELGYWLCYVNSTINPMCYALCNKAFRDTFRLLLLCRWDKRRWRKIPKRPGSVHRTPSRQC

[5] = biological target: D(1A) dopamine receptor (Homo sapiens) (UniProt P21728)
D(1A) dopamine receptor (Homo sapiens), sequence (P21728 whole entry): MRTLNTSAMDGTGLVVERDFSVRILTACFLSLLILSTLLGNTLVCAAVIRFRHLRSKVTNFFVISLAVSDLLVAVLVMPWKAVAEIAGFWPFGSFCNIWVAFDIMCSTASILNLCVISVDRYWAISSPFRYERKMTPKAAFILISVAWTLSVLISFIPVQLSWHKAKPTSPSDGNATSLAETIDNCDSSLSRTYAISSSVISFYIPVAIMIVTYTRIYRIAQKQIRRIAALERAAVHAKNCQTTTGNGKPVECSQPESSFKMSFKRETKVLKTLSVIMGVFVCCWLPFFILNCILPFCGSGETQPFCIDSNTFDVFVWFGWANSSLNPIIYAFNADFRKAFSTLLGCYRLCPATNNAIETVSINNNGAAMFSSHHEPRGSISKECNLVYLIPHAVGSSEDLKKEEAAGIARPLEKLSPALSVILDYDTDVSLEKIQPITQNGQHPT

[6] = biological target: Histamine H1 receptor (Homo sapiens) (UniProt P35367)
Histamine H1 receptor (Homo sapiens), sequence (P35367 whole entry): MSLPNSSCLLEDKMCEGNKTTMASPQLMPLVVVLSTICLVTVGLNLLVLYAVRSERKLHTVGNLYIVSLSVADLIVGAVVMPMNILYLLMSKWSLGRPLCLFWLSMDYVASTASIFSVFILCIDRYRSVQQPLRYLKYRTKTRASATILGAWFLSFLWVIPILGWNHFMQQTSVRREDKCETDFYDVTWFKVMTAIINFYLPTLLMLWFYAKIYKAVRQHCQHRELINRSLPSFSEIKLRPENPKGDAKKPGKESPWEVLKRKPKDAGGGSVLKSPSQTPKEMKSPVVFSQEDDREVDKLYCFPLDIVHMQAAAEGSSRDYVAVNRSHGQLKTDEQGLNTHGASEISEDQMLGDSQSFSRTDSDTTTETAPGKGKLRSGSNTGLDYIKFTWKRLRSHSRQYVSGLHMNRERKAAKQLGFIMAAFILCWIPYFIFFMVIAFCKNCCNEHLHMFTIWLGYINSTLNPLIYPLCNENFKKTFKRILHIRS

[7] = biological target: Histamine H4 receptor (Homo sapiens) (UniProt Q9H3N8)
Histamine H4 receptor (Homo sapiens), sequence (Q9H3N8 whole entry): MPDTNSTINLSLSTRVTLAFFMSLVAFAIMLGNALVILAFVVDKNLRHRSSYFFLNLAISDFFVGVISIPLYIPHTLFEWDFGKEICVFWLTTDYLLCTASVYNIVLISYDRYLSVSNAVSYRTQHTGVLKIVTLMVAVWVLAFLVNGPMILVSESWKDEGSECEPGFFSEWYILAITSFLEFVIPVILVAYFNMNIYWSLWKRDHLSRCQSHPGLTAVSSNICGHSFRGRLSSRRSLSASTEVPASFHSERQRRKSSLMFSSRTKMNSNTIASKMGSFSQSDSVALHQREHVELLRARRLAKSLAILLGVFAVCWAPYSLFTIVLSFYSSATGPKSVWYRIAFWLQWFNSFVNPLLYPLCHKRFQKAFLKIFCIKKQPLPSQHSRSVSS

[8] = biological target: T4, 5-hydroxytryptamine receptor 1A (Homo sapiens) (UniProt P08908)
T4 sequence (whole entry): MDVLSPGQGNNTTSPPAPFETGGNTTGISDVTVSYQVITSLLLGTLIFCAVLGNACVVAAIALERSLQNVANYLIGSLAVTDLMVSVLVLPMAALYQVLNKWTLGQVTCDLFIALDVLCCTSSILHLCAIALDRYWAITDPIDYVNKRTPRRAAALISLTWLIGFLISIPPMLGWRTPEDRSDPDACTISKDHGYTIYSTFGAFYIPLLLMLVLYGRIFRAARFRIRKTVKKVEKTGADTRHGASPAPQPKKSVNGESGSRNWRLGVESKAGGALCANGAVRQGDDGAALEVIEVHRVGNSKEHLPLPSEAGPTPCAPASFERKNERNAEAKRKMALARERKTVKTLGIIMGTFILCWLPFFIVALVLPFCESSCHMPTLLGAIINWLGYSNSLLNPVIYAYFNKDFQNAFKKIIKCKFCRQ

[9] = biological target: 5-hydroxytryptamine receptor 5A (Homo sapiens) (UniProt P47898)
5-hydroxytryptamine receptor 5A (Homo sapiens), sequence (P47898 whole entry): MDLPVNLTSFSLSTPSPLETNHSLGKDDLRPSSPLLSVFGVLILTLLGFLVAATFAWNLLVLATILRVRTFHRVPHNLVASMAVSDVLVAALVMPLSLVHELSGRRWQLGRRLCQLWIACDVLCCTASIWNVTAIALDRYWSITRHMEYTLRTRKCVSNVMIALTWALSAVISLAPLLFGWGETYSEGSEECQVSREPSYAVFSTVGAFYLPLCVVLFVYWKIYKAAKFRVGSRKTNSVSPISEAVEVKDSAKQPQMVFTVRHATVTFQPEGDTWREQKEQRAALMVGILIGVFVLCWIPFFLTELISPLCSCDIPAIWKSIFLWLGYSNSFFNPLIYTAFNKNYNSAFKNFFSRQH

[10] = biological target: Delta-type opioid receptor (Homo sapiens) (UniProt P41143)
Delta-type opioid receptor (Homo sapiens), sequence (P41143 whole entry): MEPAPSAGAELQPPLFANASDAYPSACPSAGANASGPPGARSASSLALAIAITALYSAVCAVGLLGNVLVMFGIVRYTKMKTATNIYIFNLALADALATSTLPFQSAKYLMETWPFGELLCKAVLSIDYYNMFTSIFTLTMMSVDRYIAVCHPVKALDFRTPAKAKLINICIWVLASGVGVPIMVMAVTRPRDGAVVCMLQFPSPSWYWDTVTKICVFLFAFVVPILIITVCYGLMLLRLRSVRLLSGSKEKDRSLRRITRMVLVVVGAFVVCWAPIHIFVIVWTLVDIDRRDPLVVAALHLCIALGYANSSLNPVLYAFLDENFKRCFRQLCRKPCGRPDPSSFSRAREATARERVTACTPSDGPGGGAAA

[11] = biological target: Mu-type opioid receptor (Homo sapiens) (UniProt P35372)
Mu-type opioid receptor (Homo sapiens), sequence (P35372 whole entry): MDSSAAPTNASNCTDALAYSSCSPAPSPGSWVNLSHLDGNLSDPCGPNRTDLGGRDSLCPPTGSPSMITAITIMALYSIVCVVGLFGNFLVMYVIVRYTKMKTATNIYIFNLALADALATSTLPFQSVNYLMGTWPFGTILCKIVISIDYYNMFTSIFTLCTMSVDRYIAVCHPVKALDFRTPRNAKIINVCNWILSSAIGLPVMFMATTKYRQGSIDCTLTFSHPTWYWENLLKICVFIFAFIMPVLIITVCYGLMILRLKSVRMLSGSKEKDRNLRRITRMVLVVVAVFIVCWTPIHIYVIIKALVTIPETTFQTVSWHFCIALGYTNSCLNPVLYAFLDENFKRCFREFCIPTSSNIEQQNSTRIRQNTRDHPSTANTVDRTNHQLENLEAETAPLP

[12] = biological target: Sigma non-opioid intracellular receptor 1 (Homo sapiens) (UniProt Q99720)
Sigma non-opioid intracellular receptor 1 (Homo sapiens), sequence (Q99720 whole entry): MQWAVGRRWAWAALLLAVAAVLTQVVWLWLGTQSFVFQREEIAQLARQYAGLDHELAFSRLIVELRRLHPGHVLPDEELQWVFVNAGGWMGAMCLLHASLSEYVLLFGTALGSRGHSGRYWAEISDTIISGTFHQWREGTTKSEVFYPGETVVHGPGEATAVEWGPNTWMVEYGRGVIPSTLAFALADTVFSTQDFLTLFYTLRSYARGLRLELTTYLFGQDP

[13] = biological target: Sigma intracellular receptor 2 (Homo sapiens) (UniProt Q5BJF2)
Sigma intracellular receptor 2 (Homo sapiens), sequence (Q5BJF2 whole entry): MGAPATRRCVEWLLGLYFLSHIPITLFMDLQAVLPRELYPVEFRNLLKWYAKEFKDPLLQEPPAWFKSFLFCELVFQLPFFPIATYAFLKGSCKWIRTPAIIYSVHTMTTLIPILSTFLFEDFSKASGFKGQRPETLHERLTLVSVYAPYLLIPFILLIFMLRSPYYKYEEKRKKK

[14] = biological target: Translocator protein (Homo sapiens) (UniProt P30536)
Translocator protein (Homo sapiens), sequence (P30536 whole entry): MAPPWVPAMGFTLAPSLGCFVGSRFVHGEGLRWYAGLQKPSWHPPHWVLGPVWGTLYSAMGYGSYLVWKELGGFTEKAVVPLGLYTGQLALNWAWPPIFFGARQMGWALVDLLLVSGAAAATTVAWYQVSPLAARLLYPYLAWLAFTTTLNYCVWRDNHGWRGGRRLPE

[15] = biological target: Muscarinic acetylcholine receptor M3 (Homo sapiens) (UniProt P20309)
Muscarinic acetylcholine receptor M3 (Homo sapiens), sequence (P20309 whole entry, looked up): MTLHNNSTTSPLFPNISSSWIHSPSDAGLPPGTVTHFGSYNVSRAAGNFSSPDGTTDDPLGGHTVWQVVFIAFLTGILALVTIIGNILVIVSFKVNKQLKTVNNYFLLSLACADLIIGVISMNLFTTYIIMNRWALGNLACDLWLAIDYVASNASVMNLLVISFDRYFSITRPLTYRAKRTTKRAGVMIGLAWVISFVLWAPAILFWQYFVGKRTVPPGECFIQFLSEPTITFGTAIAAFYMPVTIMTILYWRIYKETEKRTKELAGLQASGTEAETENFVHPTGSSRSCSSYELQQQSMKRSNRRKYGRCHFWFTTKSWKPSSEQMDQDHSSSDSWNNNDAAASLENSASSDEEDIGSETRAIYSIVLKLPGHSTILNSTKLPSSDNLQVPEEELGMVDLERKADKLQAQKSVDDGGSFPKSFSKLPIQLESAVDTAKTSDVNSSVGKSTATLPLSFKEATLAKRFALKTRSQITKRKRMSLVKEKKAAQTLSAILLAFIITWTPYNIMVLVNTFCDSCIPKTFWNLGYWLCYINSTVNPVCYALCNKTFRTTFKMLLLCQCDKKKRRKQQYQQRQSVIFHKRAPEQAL

[16] = biological target: 5-hydroxytryptamine receptor 1D (Homo sapiens) (UniProt P28221)
5-hydroxytryptamine receptor 1D (Homo sapiens), sequence (P28221 whole entry): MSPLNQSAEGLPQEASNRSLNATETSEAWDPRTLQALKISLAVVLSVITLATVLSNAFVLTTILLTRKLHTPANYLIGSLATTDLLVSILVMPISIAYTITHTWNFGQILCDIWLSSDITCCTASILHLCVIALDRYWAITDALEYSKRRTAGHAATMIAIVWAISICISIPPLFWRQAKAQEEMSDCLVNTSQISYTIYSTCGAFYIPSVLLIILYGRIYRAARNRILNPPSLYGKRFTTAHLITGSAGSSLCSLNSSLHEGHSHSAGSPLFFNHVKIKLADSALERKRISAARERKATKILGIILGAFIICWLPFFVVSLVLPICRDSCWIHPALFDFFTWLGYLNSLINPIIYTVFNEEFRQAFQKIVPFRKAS

[17] = biological target: Kappa-type opioid receptor (Homo sapiens) (UniProt P41145)
Kappa-type opioid receptor (Homo sapiens), sequence (P41145 whole entry): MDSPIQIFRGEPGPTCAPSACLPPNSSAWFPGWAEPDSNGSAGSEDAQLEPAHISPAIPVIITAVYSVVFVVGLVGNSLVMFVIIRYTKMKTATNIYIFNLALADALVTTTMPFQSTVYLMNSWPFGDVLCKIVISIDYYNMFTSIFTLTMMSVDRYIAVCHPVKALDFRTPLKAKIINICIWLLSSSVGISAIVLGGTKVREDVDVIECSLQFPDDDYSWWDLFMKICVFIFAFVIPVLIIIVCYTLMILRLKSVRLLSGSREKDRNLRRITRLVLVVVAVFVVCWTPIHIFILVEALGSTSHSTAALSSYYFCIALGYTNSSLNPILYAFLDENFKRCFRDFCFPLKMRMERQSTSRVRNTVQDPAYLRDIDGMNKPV

| Structure (SMILES) | inhibition [1] [%] | inhibition [2] [%] | inhibition [3] [%] | inhibition [4] [%] | inhibition [5] [%] | inhibition [6] [%] | inhibition [7] [%] | inhibition [8] [%] | inhibition [9] [%] | inhibition [10] [%] | inhibition [11] [%] | inhibition [12] [%] | inhibition [13] [%] | inhibition [14] [%] | inhibition [15] [%] | inhibition [16] [%] | inhibition [17] [%] |
| --- | --- | --- | --- | --- | --- | --- | --- | --- | --- | --- | --- | --- | --- | --- | --- | --- | --- |
| COC1CCN(c2cccc(-c3cc(NC(C)=O)nc(-n4nc(C)cc4C)n3)n2)CC1 | -0.88 | 26.3 | 2.28 | 1.9 | -3.87 | 14.4 | 5.32 | 23.3 | -1.72 | -6 | 27.3 | 80.2 | 36.3 | 70.3 | – | – | – |
| Cc1csc(NC(=O)c2cc(F)cc(Oc3cncnc3)c2)n1 | 6.73 | 6.42 | 8.79 | -0.94 | -5.62 | -6.12 | 0.79 | 20.4 | -6.54 | -0.43 | -8.28 | 37.2 | 41.8 | 37.4 | -2.7 | 5.84 | 18.9 |
| Cc1nnn(-c2ccc(-c3ccc(C4(C(=O)O)CC4)cc3)cc2)c1NC(=O)O[C@H](C)c1ccccc1 | 4.78 | 2.71 | 6.66 | 7.62 | -4.64 | 52.8 | -4.07 | 2.96 | 15.6 | 7.05 | -8.07 | 20.9 | -0.49 | 3.3 | -2.63 | 16.8 | -4.59 |
| COc1ccnc(N2CCC3(CCCN(Cc4c[nH]c5ccccc45)C3=O)CC2)n1 | -7.28 | 4.51 | 11.9 | 0.43 | -4.13 | 23.1 | -2.57 | 72.4 | -9.26 | 41.8 | -4.41 | 16 | 34.7 | 75.8 | – | 13.2 | 6.61 |
| Cc1c(C2=CCN(C(=O)N(C)C(C)C)CC2)nnn1-c1cccnc1F | 21.3 | 9.65 | -6.84 | 2.87 | – | 60.9 | 9.6 | 17 | 7.43 | – | 36.2 | 48.4 | 64.4 | -1.56 | 1.95 | – | – |
